# Test results reported in patent US20250325469A1, “Inhibitors of atp synthase - cosmetic and therapeutic uses” (priority 2021, published 2025).
# pIC50: −log10 of the molar value.
# Legend:
# [1] = target: T1, F1F0 ATP hydrolysis (Bos taurus, UniProt P00829+P19483); details: cited from earlier work; for pIC50: IF1 protein depleted SMPs from Bos taurus, pH 6.7, 37° C. [142]
# T1 construct: IF1 protein depleted Sub-Mitochondrial Particles (SMPs) from Bos taurus; from tissue; host or cells: sub-mitochondrial particles from Bos taurus, endogenous IF1 removed
# [2] = test system: F1F0 ATP hydrolysis; details: [8, 109]; cited from earlier work
# [3] = test system: cancer cell lines of the NCI-60 assay; assay: NCI one-dose (10 μM) NCI-60 testing; assay type: cell-based; details: for anti-cancer activity: NCI-60 anti-cancer testing in vitro; for inhibition at 10 µM: 1-dose testing
# Method: FIG. 1: Chiral supercritical fluid chromatography (SFC) was used to separate the shown racemate into its component R and S stereoisomers and two samples of opposite >97% enantiomeric excess (ee) was achieved: termed 8a and 8b respectively. 8a and 8b differ from 6a and 6b because they have methyl (Me, CH3), instead of hydrogen (H), upon their chiral carbon. 8a and 8b were independently tested in NCI one-dose (10 μM) testing: their results are shown in FIGS. (1B) and (1C) respectively.
# (§1) (1E) 8a and 8b NCI one-dose (10 μM) test results side by side. % cancer growth inhibition >100 means there are less cancer cells at experiment end than beginning (i.e. cancer killing activity), =200=all cancer cells dead at experiment end. The observed pattern of 8a vs. 8b activity is hard to explain. One would expect one stereoisomer to have greater or equal activity than the other. […] Moreover, for one cancer cell line (NCI-H322M), 8a has no activity, yet 8b does.
# [4] = rectal temperature and activity of mice administered compound; assay type: in vivo, mouse
# Method: Hypoactivity of mouse, after being administered compound 6b, was because 6b caused the mouse's body temperature to drop towards its ambient temperature (22° C.). When ambient equals optimal body temperature (37° C.), 6b cannot reduce body temperature and cannot cause hypoactivity. In some embodiments, the hypoactivity/sedation aspect to a compound(s) of this disclosure is utilized for therapy. The intersection between drug dose and ambient temperature dictates how much the body temperature falls and thence the depth of the sedation. Larger drug dose, and/or lower ambient temperature, causes deeper sedation (e.g. useful for inducing anaesthesia, pre-anaesthesia, post-anaesthesia, hypoesthesia, sedation, coma, tranquilization, behavioural submission, muscle relaxation and/or treating/ameliorating/preventing/combating insomnia, fatal insomnia, sleep onset latency, delayed sleep phase disorder, exploding head syndrome, parasomnia, sleep-maintenance insomnia, sleep disorder etc.; repeated/continuous administration, e.g. repeated i.v. injections or continuous i.v. infusion, of a compound(s) of this disclosure can sedate a subject for an extended period of time). Smaller drug dose, and/or higher ambient temperature, causes lighter sedation (e.g. useful for anti-anxiety, anti-depression, hyperactivity etc.). At ambient≥optimal body temperature (37° C.), no sedation occurs. […]
# [5] = test system: NCI-H322M; assay: NCI one-dose (10 μM) testing, NCI-H322M; assay type: cell-based
# Method: as §1
# [6] = test system: cancer cell lines of the NCI-60 assay; assay: NCI-60 five-dose in vitro assay; assay type: cell-based; details: at 10 μM in 5-dose testing
# Method: The present figure, herein, is a summary figure of that data (corresponding to FIG. 16K in the aforementioned Canadian application). Mean G150 for 8b and 8a is 3.09 and 2.85 μM respectively. […] In the 8a case, this GI50 is lower/better than 65% of 102 FDA approved cancer drugs in [112]. A salt of 8a. e.g. 8a HCl, is likely to have an even lower G150 in NCI five-dose testing.
# The Pearson correlation coefficient between 8a activity in 1-dose (10 μM) and at 10 μM in 5-dose NCI-60 testing: R=0.4544 p=0.00034. The Pearson correlation coefficient between 8b activity in 1-dose (10 μM) and at 10 μM in 5-dose NCI-60 testing: R=0.6156, p<0.00001. […] So, this isn't unexpected. Not wishing to be bound by theory, in 5-dose NCI-60 testing, why 8a has a lower mean GI50 than 8b will now be explained. […] Except for the cancer cell lines that 8b exerted much more activity than 8a at in 1-dose testing, wherein the increased activity of 8a can't completely make up the deficit and overtake the activity of 8b.
# [7] = test system: A498; assay: NCI one-dose (10 μM) testing, A498; assay type: cell-based
# Method: as §1
# [8] = test system: MDA-MB-231/ATCC; assay: NCI one-dose (10 μM) testing, MDA-MB-231/ATCC; assay type: cell-based
# Method: as §1
# [9] = test system: cells; details: each attached to the cargo sequence by introduced cysteines and a disulphide bond; cited from earlier work
# [10] = read-out: Mean % cancer growth inhibition
# [11] = read-out: Median % cancer growth inhibition
compound,measurement,setting,value
"1-56: Bos taurus IF1 protein fragment, residues 1-56 (GSESGDNVRSSAGAVRDAGGAFGKREQAEEERYFRARAKEQLAALKKHHENEISHH; UniProt P01096 26-81, looked up, fragment) [Compound 1-56]",pIC50,[1],7.49
"1-60: Bos taurus IF1 protein fragment, residues 1-60 (GSESGDNVRSSAGAVRDAGGAFGKREQAEEERYFRARAKEQLAALKKHHENEISHHAKEI; UniProt P01096 26-85, looked up, fragment) [Compound 1-60]",pIC50,[1],7.72
"10-46: Bovine IF1 protein fragment, residues 10-46 (SSAGAVRDAGGAFGKREQAEEERYFRARAKEQLAALK; UniProt P01096 35-71, looked up, fragment) [Compound 10-46]",inhibitory activity,"[1]; bovine IF1 protein fragments, FIG. 10I legend [142, 144]",ten-fold less activity than 10-47
"10-47: Bos taurus IF1 protein fragment, residues 10-47, mature numbering (SSAGAVRDAGGAFGKREQAEEERYFRARAKEQLAALKK; UniProt P01096 35-72, looked up, fragment) [Compound 10-47]",pIC50,[1],7.35
N#Cc1cccc(C(=O)/N=C(\Nc2ccc(Cl)cc2)N[C@@H](Cn2ccnc2)c2ccc(Cl)cc2Cl)c1 [Compound 6a],ability to inhibit/reduce F1F0 ATP hydrolysis,[2],cannot
same,anti-cancer activity,[3],anti-cancer activity
N#Cc1cccc(C(=O)/N=C(\Nc2ccc(Cl)cc2)N[C@H](Cn2ccnc2)c2ccc(Cl)cc2Cl)c1 [Compound 6b],rectal temperature,"[4]; ambient room temperature 22° C., dose dependent",reduces its rectal temperature towards the ambient room temperature
same,hypoactivity,[4]; ambient temperature 22° C.,hypoactivity
same,ability to inhibit/reduce F1F0 ATP hydrolysis,[2],can potently inhibit/reduce F1F0 ATP hydrolysis
same,anti-cancer activity,[3],anti-cancer activity
[2H][C@@](Cn1ccnc1)(N/C(=N/C(=O)c1cccc(C#N)c1)Nc1ccc(Cl)cc1)c1ccc(Cl)cc1Cl [Compound 7a],anti-cancer activity,[3],less anti-cancer activity than 6a
C[C@@](Cn1ccnc1)(N/C(=N/C(=O)c1cccc(C#N)c1)Nc1ccc(Cl)cc1)c1ccc(Cl)cc1Cl [Compound 8a],anti-cancer activity,[5],no activity
same,inhibition at 10 µM,[6]; [10],103%
same,inhibition at 10 µM,[6]; [11],95%
same,"Δ % cancer growth inhibition, 8a greater than 8b",[7],38.57
same,inhibition at 10 µM,[3]; [10],60.3%
same,inhibition at 10 µM,[3]; [11],59.8%
C[C@](Cn1ccnc1)(N/C(=N/C(=O)c1cccc(C#N)c1)Nc1ccc(Cl)cc1)c1ccc(Cl)cc1Cl [Compound 8b],anti-cancer activity,[5],does
same,inhibition at 10 µM,[6]; [10],99.4%
same,inhibition at 10 µM,[6]; [11],93%
same,"Δ % cancer growth inhibition, 8b greater than 8a",[8],85.34%
same,inhibition at 10 µM,[3]; [10],76.5%
same,inhibition at 10 µM,[3]; [11],77%
same,anti-cancer activity,[3],greater anti-cancer activity than 8a
Bos taurus IF1 protein: Bos taurus IF1 protein recombinantly produced in E. Coli,pIC50,[1],7.47
"RRRRRRR (Cell Penetrating Peptide (CPP) sequence) [Compound R7, heptamer of L-arginine residues, cell penetrating peptide]",cellular penetration compared with Tat or penetratin,[9],twice as good
